Test [1] has as its system CD69. Briefly: Induction of CD69 in human whole blood (hWB). In kind it is cell-based. The following applies: 17 hrs at 37 C, CD69 surface staining, 100% set to 1 uM resiquimod, average where performed multiple times. In a few lines:
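Heparinized human whole blood, diluted in RPMI 1640, exposed to TLR7 agonist at 1 uM final (1 mM stock) for 17 h at 37° C. CD69 on CD19+ B cells measured by flow cytometry after surface staining and fix/lysis. […] curves normalized with 100% set to 1 uM resiquimod.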

The target of test [2] is T1, human TLR7 (Homo sapiens, UniProt Q9NYK1).
T1 construct: host or cells: HEK-Blue TLR7 cells (engineered human embryonic kidney cells)
T1 sequence (Q9NYK1 27-1049): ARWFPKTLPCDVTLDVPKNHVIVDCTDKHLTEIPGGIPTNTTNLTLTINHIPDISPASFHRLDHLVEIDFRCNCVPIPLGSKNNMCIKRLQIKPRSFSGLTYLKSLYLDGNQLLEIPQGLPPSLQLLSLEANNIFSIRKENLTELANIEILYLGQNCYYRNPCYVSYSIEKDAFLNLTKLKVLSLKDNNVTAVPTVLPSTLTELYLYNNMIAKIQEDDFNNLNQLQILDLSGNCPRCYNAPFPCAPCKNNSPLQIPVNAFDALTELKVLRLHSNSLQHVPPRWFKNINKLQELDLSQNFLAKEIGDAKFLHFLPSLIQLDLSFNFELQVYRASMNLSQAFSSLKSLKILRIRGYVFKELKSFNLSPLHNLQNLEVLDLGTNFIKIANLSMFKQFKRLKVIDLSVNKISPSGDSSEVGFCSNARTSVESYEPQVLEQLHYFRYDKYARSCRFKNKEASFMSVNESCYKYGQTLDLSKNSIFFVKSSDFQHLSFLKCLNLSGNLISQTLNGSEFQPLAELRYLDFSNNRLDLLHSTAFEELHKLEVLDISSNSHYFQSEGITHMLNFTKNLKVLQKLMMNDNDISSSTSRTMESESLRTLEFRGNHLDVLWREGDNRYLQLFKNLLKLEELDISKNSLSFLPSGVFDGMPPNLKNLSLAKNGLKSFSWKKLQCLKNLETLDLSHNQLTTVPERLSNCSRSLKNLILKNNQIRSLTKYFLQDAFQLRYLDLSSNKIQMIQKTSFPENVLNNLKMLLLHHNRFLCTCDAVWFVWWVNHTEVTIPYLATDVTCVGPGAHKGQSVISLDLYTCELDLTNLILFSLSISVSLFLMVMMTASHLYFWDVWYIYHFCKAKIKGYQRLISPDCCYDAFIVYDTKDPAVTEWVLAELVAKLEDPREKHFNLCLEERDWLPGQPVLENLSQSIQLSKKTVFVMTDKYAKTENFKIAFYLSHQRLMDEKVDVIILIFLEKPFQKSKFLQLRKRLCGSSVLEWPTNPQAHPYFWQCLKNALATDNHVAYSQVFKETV
Briefly: Human TLR7 agonist activity assay (hTLR7 reporter, HEK-Blue TLR7 cells, SEAP). Conditions: HEK-Blue TLR7 cells with SEAP reporter, 18 h treatment; average where assay performed multiple times. In kind it is cell-based. The gist of the method: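 HEK-Blue TLR7 cells (15,000/well) treated with compound for 18 h at 37 °C, 5% CO2. Secreted SEAP measured with Quanti-Blue, 30 min, OD 620 nm. EC50 taken as concentration giving half-maximal response between baseline and maximum.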

Our source for the EC50 values is patent US20230041738A1, “1H-PYRAZOLO[4,3-d]PYRIMIDINE COMPOUNDS AS TOLL-LIKE RECEPTOR 7 (TLR7) AGONISTS” (BRISTOL-MYERS SQUIBB COMPANY, priority 2020, published 2023).

For the compound `COc1cc(CN2C[C@H]3C[C@@H]2CN3C)ccc1Cn1ncc2nc(N)nc(N[C@H](CO)CC3CC3)c21` [Compound 137, (2S)-2-({5-amino-1-[(2-methoxy-4-{[(1R,4R)-5-methyl-2,5-diaza-bicyclo[2.2.1]heptan-2-yl]methyl}-phenyl]methyl]-1H-pyrazolo[4,3-d]pyrimidin-7-yl}amino)-3-cyclopropylpropan-1-ol], the 50% effective concentration (EC50) in test [1] was found to be 13.2 nM; in test [2], 576 nM.
Consider `CCC[C@@H](CCO)Nc1nc(N)nc2cnn(Cc3ncc(CN4C[C@H]5C[C@@H]4CN5CCO)cc3OC)c12` [Compound 138, (3S)-3-({5-amino-1-[(5-{[(1R,4R)-5-(2-hydroxyethyl)-2,5-diaza-bicyclo[2.2.1]heptan-2-yl]methyl}-3-methoxypyridin-2-yl)methyl]-1H-pyrazolo[4,3-d]pyrimidin-7-yl}amino)hexan-1-ol], for which the figures for the EC50 in test [1] and in test [2] were 3 nM and 278 nM, respectively.
Taken in the same sequence, the figures for `CCCCNc1nc(N)nc2cnn(Cc3ccc(CN4C[C@H]5CN(CCO)C[C@H]5C4)cc3OC)c12` [Compound 139, 2-[(3aR,6aS)-5-[(4-{[5-amino-7-(butylamino)-1H-pyrazolo[4,3-d]pyrimidin-1-yl]methyl}-3-methoxy-pheny)methyl]-octahydropyrrolo[3,4-c]pyrrol-2-yl]ethan-1-ol] were 1.9 nM and 19.6 nM.
Taken in the same sequence, the figures for `CCC[C@@H](CCO)Nc1nc(N)nc2cnn(Cc3cnc(CN4C[C@H]5C[C@@H]4CN5CCO)cc3OC)c12` [Compound 140] were 31.6 nM and 716 nM.
Taken in the same sequence, the figures for `CCC[C@@H](CCO)Nc1nc(N)nc2c(C)nn(Cc3ccc(CN4C[C@H]5C[C@@H]4CN5CCO)cc3OC)c12` [Compound 141, (3S)-3-({5-amino-1-[(4-{[(1R,4R)-5-(2-hydroxyethyl)-2,5-diazabicyclo [2.2.1]heptan-2-yl]methyl}-2-methoxyphenyl)methyl]-3-methyl-1H-pyrazolo[4,3-d]pyrimidin-7-yl}amino)hexan-1-ol] were 10.6 nM and 59.9 nM.
On to `CCCCNc1nc(N)nc2cnn(Cc3ccc(CN4C[C@H]5CNC[C@H]5C4)cc3OC)c12` [Compound 143, 1-[(4-{[(3aR/6aS)-octahydropyrrolo [3,4-c]pyrrol-2-yl]methyl}-2-methoxyphenyl)methyl]-N7-butyl-1H-pyrazolo[4,3-d]pyrimidine-5,7-diamine], for which the EC50 in test [1] turned out to be 1.29 nM; in test [2], 62.2 nM.
